From patent US20190209548A1, “LINKED DIARYL COMPOUNDS WITH ANTICANCER PROPERTIES AND METHODS OF USING THE SAME” (University of Maryland, College Park, priority 2014, published 2019) come the findings set out here.

“And” between values parts separate entries of the source, which are not always exact repeats. Identical values can stand only once. Like-named read-outs stand apart in the source and are kept apart here.

One assay relates to OVCAR-3. Nature of the assay: WST-1 IC50 determination, OVCAR-3. It is filed as cell-based, human. The conditions noted are these: 72 hours, WST-1; for IC50: read-out: Anticancer activity IC50 ± SD, OVCAR-3. On the technique in general: Tetrazolium dyes change colour on reduction, which living cells bring about.
For a further assay, the system named is duplex. Nature of the assay: FRET melting assay, duplex DNA. It is filed as binding. The conditions noted are these: dual-labeled DNA 0.2 μM, DMZ analogues 1 μM, potassium cacodylate 60 mM pH 7.2. How it is done:
(§1) Fluorescence resonance energy transfer (FRET) assay to determine Tm in absence and presence of ligands. Dual-labelled DNA was diluted from stock (50 μM) to 400 nM in 60 mM potassium cacodylate buffer (pH 7.2) and then annealed by heating at 85° C. for 10 min followed by cooling to room temperature in the heating block. Compounds were diluted from stock (20 mM in DMSO) to 2 μM in 60 mM cacodylate buffer (pH 7.2). 25 μL annealed DNA was added to 96-well plate followed by 25 μL diluted compounds. The sequences of labelled oligonucleotides were as follows: F21T 21-mer (5′-FAM-GGGTTAGGGTTAGGGTTAGGG-TAMRA-3′) (SEQ ID NO:11), c-kit2 26-mer (5′-FAM-CCCGGGCGGGCGCGAGGGAGGGGAGG-TAMRA-3′) (SEQ ID NO:12), k-RAS21R 21-mer (5′-FAM-AGGGCGGTGTGGGAAGAGGGA-TAMRA-3′) (SEQ ID NO:13), c-MYC 22-mer (5′-FAM-TGAGGGTGGGTAGGGTGGGTAA-TAMRA-3′) (SEQ ID NO:14) and duplex 26-mer (5′-FAM-TATAGCTATATTTTTTTATAGCTATA-TAMRA-3′) (SEQ ID NO: 15). Measurements were made in triplicate by using a LightCycler 480 System RT-PCR machine (Roche) and average values were reported. Fluorescence readings were made with excitation at 450-495 nm and detection at 515-545 nm, taken at intervals of 1.2° C./min in the range 25° C. to 95° C.

The next assay relates to c-MYC. Briefly: FRET melting assay, c-MYC. Type of assay: binding. The conditions noted are these: dual-labeled DNA 0.2 μM, DMZ analogues 1 μM, potassium cacodylate 60 mM pH 7.2. The method, then:
as §1

A further assay relates to c-MYC Pu27. Briefly: PCR stop assay, Pu27 template. Type of assay: biochemical. How it is done: (§2) PCR Stop Assay. This assay was performed by modifying a previously published protocol.
(§3) To the PCR reaction mixture (25 μL), 1×PCR buffer (New England Biolabs), 5 μM Pu27 and Pu27rev oligomers, various concentrations of ligands (DMZ, TMPyP4, DMZ1, DMZ9 and DMZ13) were added and incubated at 4° C. for 6 h. After that, 1 mM dNTPs, 5 units of Taq DNA polymerase (New England Biolabs) were added and PCR reactions were performed in a thermocycler, with the following conditions: 94° C. for 3 min, followed by 20 repeated cycles each having 94° C. for 30 s, 58° C. for 30 s, and 72° C. for 30 s. After PCR, amplified products were analyzed on 12% polyacrylamide gel with 1×TBE and SYBR Gold stained. This assay was also performed under the same conditions with Pu27-13,14 and Pu27rev.

The test system of a further assay is PC-3. Briefly: WST-1 IC50 determination, PC-3. It is filed as cell-based, human. The conditions noted are these: 72 hours, WST-1; for IC50: read-out: Anticancer activity IC50 ± SD, PC-3.
A further assay has as its system F21T. Briefly: FRET melting assay, F21T. It is filed as binding. The conditions noted are these: dual-labeled DNA 0.2 μM, DMZ analogues 1 μM, potassium cacodylate 60 mM pH 7.2. The method, then: as §1
In the next assay the test system is Pu27-13,14. Nature of the assay: PCR stop assay, mutated control template. It is filed as biochemical. The method, then: as §2, §3
A further assay concerns c-kit1. Nature of the assay: 1H-NMR of c-kit1 with ligand. It is filed as binding. The conditions noted are these: ligand 150 μM, DNA 300 μM. The method, then: (§4) NMR measurements for DNA binding of triazene ligands. The procedure was followed as described previously. The ligand concentration was 150 μM, and that of the DNA (c-kit1 or 8 bp AT) was […]. The buffer used was 10 mM potassium phosphate (pH 7.5) containing 137 mM NaCl, 1 mM EDTA, and also contained 10% D2O. The sample was initially heated up to 95° C. for 5 min without the ligand and then cooled down to room temperature in 15 min. Subsequently, the sample was incubated at 4° C. for ˜12 h without the ligand (for G-quadruplex formation). Then, the ligand was added and incubated for 2 h before the NMR measurement (25° C.).
(§5) NMR of DNA/DNA analogue complexes. NMR of spectra (c-kit1 or 8 bp A T) in absence or presence of ligands were obtained following precedent. The sample solution containing c-kit1 (300 μM), D2O (10%, v/v), NaCl (137 mM), EDTA (1 mM) and potassium phosphate buffer (10 mM, pH 7.5) was heated up to 95° C. for 5 min, then cooled down to room temperature, and subsequently incubated for another 12 hours at 4° C. The DMZ analogue (150 μM) was then added and incubated for 2 hours at 4° C. The ^1H NMR spectra were recorded at 25° C., using NaOAc as an internal standard (NaOAc was in a sealed capillary tube that was inserted in the NMR tube). The ^1H NMR spectra was recorded on Bruker Avance III HD 800 MHz spectrometer with a CPQCI cryoprobe.

For the next assay, the system named is c-kit2. Nature of the assay: FRET melting assay, c-kit2. The conditions noted are these: dual-labeled DNA 0.2 μM, DMZ analogues 1 μM, potassium cacodylate 60 mM pH 7.2. It is filed as binding. How it is done: as §1
Another assay concerns k-RAS21R. Briefly: FRET melting assay, k-RAS21R. Type of assay: binding. The conditions noted are these: dual-labeled DNA 0.2 μM, DMZ analogues 1 μM, potassium cacodylate 60 mM pH 7.2. How it is done:
as §1

A further assay relates to 8 bp AT. Nature of the assay: 1H-NMR of duplex DNA with ligand. Type of assay: binding. The conditions noted are these: ligand 150 μM, DNA 300 μM. How it is done: as §4, §5
The next assay concerns MDA-MB-231. Briefly: WST-1 IC50 determination, MDA-MB-231. It is filed as cell-based, human. The conditions noted are these: 72 hours, WST-1; for IC50: read-out: Anticancer activity IC50 ± SD, MDA-MB-231.

The term IC50 denotes the concentration needed to halve the response being measured. Take `N=C(N)c1ccc(/N=N/Nc2ccc(C(=N)N)cc2)cc1` [DMZ, Diminazene aceturate, reference compound]: in the assay with OVCAR-3 (Homo sapiens, OVCAR-3), the IC50 was above 25 µM. Further, the ΔTm duplex with duplex came out at 6.4 °C. Moreover, the “ΔTm c-MYC” value in the assay with c-MYC was found to be 12.97 ± 0.26 °C. The “polymerization/extension of oligomers Pu27 and Pu27rev” value (“polymerization/extension” for short) in the assay with c-MYC Pu27 (25 μM compound) is on record as “showed inhibition”. Further, the “Anticancer activity IC50 ± SD, PC-3” value in the assay on PC-3 was “NE (NE means not effective. Cell viability was the same or greater than 75% of the DMSO control at 20 μM compound concentration.)”. Also, the “ΔTm F21T” value with F21T stood at 10.05 ± 0.52 °C. Moreover, the “PCR product with non-G-quadruplex template” value in the assay on Pu27-13,14 (25 μM compound) is on record as “amplified PCR product was observed”. For the same compound, the “change of c-kit1 imino proton NMR spectrum” value in the assay on c-kit1 was “direct binding”. In addition, in the assay with c-kit2, the “ΔTm c-kit2” value was found to be 11.70 ± 0.26 °C. For the same compound, the “ΔTm k-RAS21R” value with k-RAS21R is 18.3 °C and 18.27 ± 0.52 °C. Besides, the “change of duplex DNA imino proton NMR spectrum” value in the assay on 8 bp AT was “considerable changes in the imino region”. Further, in the assay on MDA-MB-231, the “Anticancer activity IC50 ± SD, MDA-MB-231” value is recorded as “NE (NE means not effective. Cell viability was the same or greater than 75% of the DMSO control at 20 μM compound concentration.)”.
As to `N=C(N)c1ccc(/N=N/Nc2ccccc2C#Cc2ccc(F)cc2)cc1` [DMZ13], the figures for the concentration for half-maximal inhibition (IC50) with OVCAR-3, in the assay with PC-3 and in the assay on MDA-MB-231 were 9.5 ± 2.2 µM, 7.4 ± 0.2 µM and 6.2 ± 1 µM, respectively. The ΔTm duplex result with duplex is recorded as “NE (NE means not effective binding (ΔTm < 1° C.))”. Besides, the “ΔTm c-MYC” value with c-MYC amounted to 7.15 ± 0.00 °C. For the same compound, the “polymerization/extension” value in the assay on c-MYC Pu27 (100 μM compound) is “completely inhibited”. The “ΔTm F21T” value with F21T came to 4.20 ± 0.00 °C. The “PCR product with non-G-quadruplex template” value with Pu27-13,14 (100 μM compound) is “amplified PCR product was observed”. Also, the “change of c-kit1 imino proton NMR spectrum” value in the assay on c-kit1 is “changes in peak positions and shapes”. In addition, the “ΔTm c-kit2” value in the assay on c-kit2 was found to be 5.12 ± 0.26 °C. Besides, the “ΔTm k-RAS21R” value with k-RAS21R came out at 2.01 ± 0.00 °C. Further, in the assay on 8 bp AT, the “change of duplex DNA imino proton NMR spectrum” value is on record as “no change was observed”.
`N=C(N)c1ccc(NN=Nc2ccccc2)cc1` [DMZ1]: in the assay with OVCAR-3, the “Anticancer activity IC50 ± SD, OVCAR-3” value is listed as “NE (NE means not effective. Cell viability was the same or greater than 75% of the DMSO control at 20 μM compound concentration.)”. Also, the “ΔTm c-MYC” value with c-MYC amounted to 7.87 ± 0.53 °C. In addition, in the assay on PC-3, the “Anticancer activity IC50 ± SD, PC-3” value is recorded as “NE (NE means not effective. Cell viability was the same or greater than 75% of the DMSO control at 20 μM compound concentration.)”. The “ΔTm F21T” value with F21T was found to be 4.20 ± 0.00 °C. Also, in the assay on c-kit1, the “change of c-kit1 imino proton NMR spectrum” value was “direct binding”. Also, the “ΔTm c-kit2” value with c-kit2 was 6.40 ± 0.26 °C. Further, the “ΔTm k-RAS21R” value in the assay on k-RAS21R is 5.47 ± 0.93 °C. The “change of duplex DNA imino proton NMR spectrum” value in the assay with 8 bp AT is on record as “only DMZ (but not Triazene-1) showed considerable changes”. In addition, the “Anticancer activity IC50 ± SD, MDA-MB-231” value in the assay with MDA-MB-231 was “NE (NE means not effective. Cell viability was the same or greater than 75% of the DMSO control at 20 μM compound concentration.)”.
With `N=C(N)c1ccc(N=NNc2cccc(C#Cc3ccc(F)cc3)c2)cc1` [DMZ9], the values for the IC50 in the assay with OVCAR-3, in the assay with PC-3 and with MDA-MB-231 were 5 ± 0.1 µM, 5.3 ± 1.6 µM and 5.5 ± 0.1 µM, respectively. Also, the ΔTm duplex result in the assay with duplex is reported as “NE (NE means not effective binding (ΔTm < 1° C.))”. Further, the “ΔTm c-MYC” value with c-MYC came out at 8.22 ± 0.45 °C. The “polymerization/extension” value in the assay on c-MYC Pu27 (100 μM compound) was “completely inhibited”. Further, the “ΔTm F21T” value in the assay on F21T came to 4.20 ± 0.00 °C. Further, the “PCR product with non-G-quadruplex template” value in the assay with Pu27-13,14 (100 μM compound) is “amplified PCR product was observed”. In the assay with c-kit1, the “change of c-kit1 imino proton NMR spectrum” value is “changes in peak positions and shapes”. Moreover, the “ΔTm c-kit2” value with c-kit2 came to 5.67 ± 0.26 °C. Further, the “ΔTm k-RAS21R” value in the assay on k-RAS21R was 6.58 ± 1.29 °C. The “change of duplex DNA imino proton NMR spectrum” value with 8 bp AT is recorded as “no change was observed”.
